In ChEMBL document CHEMBL1125760, “4-(Tetrazolylalkyl)piperidine-2-carboxylic acids. Potent and selective N-methyl-D-aspartic acid receptor antagonists with a short duration of action” (J Med Chem, 1991):

Experiments:
[1] = target: Glutamate NMDA receptor; test: In vitro binding affinity against N-methyl-D-aspartate glutamate receptor using [3H]CGS-19,755 ligand; assay type: protein-complex assay
[2] = tested on: Mus musculus; test: Tested for antagonism of NMDA induced lethality in neonatal mice (ip) and minimum effective dose (MED) was reported; assay type: functional; conditions: read-out: MED
[3] = target: Glutamate NMDA receptor; test: Compound was evaluated in vitro in a cortical-wedge preparation for the antagonism of N-methyl-D-aspartate-induced responses; assay type: functional
[4] = tested on: Rattus norvegicus; test: Tested for antagonism of NMDA induced convulsions in neonatal rats (ip) and minimum effective dose (MED) was reported; assay type: functional; conditions: read-out: MED

## O=C(O)[C@H]1C[C@H](Cc2nn[nH]n2)CCN1
[1]
  IC50: 0.777 µM
[2]
  minimal effective dose: 80 mg/kg
[3]
  IC50: 35.2 µM

## O=C(O)[C@@H]1C[C@H](CCCc2nn[nH]n2)CCN1
[2]
  minimal effective dose: 10 mg/kg
[3]
  IC50: 12.4 µM
[4]
  minimal effective dose: 100 mg/kg

## O=C(O)[C@@H]1C[C@H](CP(=O)(O)O)CCN1 [SELFOTEL]
[2]
  minimal effective dose: 1.25 mg/kg
[3]
  IC50: 1.7 µM
[4]
  minimal effective dose: 5 mg/kg

## O=C(O)[C@@H]1C[C@H](CCc2nn[nH]n2)CCN1
[1]
  IC50: 2.28 µM
[2]
  minimal effective dose: 20 mg/kg
[3]
  IC50: 8.1 µM
[4]
  minimal effective dose: 100 mg/kg

## O=C(O)[C@H]1C[C@@H](Cc2nnn[nH]2)CCN1
[2]
  minimal effective dose: 5 mg/kg
[3]
  IC50: 4.2 µM
[4]
  minimal effective dose: 20 mg/kg

## O=C(O)[C@@H]1C[C@H](CCCCc2nn[nH]n2)CCN1
[1]
  IC50: > 10 µM
[2]
  minimal effective dose: > 160 mg/kg

## CN1CC[C@H](Cc2nn[nH]n2)C[C@@H]1C(=O)O
[1]
  IC50: > 10 µM
[2]
  minimal effective dose: > 160 mg/kg
